Measurements from US20230021483A1, “[…] […] METHOD AND CLASSIFICATION OF PHARMACEUTICAL COMPONENTS BY USING TRANSCRIPTOMES” (National Institutes of Biomedical Innovation, Health and …, priority 2016, published 2023).
Peptide text beside a SMILES is read from it. * marks the point of attachment. X1 = CCCCCCCCCCCCCCCC(=O)OCC(C*)OC(=O)CCCCCCCCCCCCCCC; Palmitoyl = CCCCCCCCCCCCCCCC(=O)*

Assays:
Format in all cases: in vivo, C57BL/6 mice
circulating blood cells = test: Hematological cell count of peripheral blood 6 h after adjuvant administration (VetScan HMII); conditions: mouse, in vivo
Description: Take about 200 μL of blood from the retro-orbital venous plexus with a non-heparinized capillary tube and place the blood into a 1.5 mL tube comprising 2 μL of 10% EDTA-2K for hematological testing. Thoroughly mix the sample by gentle tapping. Stored at room temperature until hematological testing.
The hematological cell count was found using VetScan HMII (Abaxis). 50 μl of EDTA-2K blood sample was diluted by adding 250 μl of saline. Measurements are taken with VetScan HMII by following the instruction.
In a preliminary experiment, FCA and ALM were tested at different points up to 72 hours. […] At 6 hours after adjuvant administration, LV, SP, and LN (both sides) were removed to study the gene expression thereof by using Affimetrix Genechip microarray system (Affymetrix). The sampled organs were each placed in a tube containing RNAlater. The tube was maintained at 4° C. overnight, and stored at −80° C. until use. Blood was also collected after 6 hours from adjuvant administration for general hematological testing. About 200 μL of blood was taken from the retro-orbital venous plexus with a non-heparinized capillary tube and placed into a 1.5 mL tube comprising 2 μL of 10% EDTA-2K for hematological testing. The hematological cell count was found using VetScan HMII (Abaxis). 50 μl of EDTA-2K blood sample was diluted by adding 250 μl of saline. Measurements were taken with VetScan HMII by following the instruction.
The effect of adjuvant administration with respect to the changes in several hematological parameters was investigated. The following parameters were studied: white blood cells (WBC), lymphocytes (LYM), monocytes (MON), granulocytes (GRA), relative (%) content of lymphocytes (LY %), relative (%) content of monocytes (MO %), relative (%) content of granulocytes (GR %), red blood cells (RBC), hemoglobins (Hb, HGB), hematocrits (HCT), mean corpuscular volume (MCV), mean corpuscular hemoglobins (MCH), mean corpuscular hemoglobin concentration (MCHC), red blood cell distribution width (RDW), platelets (PLT), platelet concentration (PCT), mean platelet volume (MPV), and platelet distribution width (PDW).

spleen (SP) = test: Whole organ transcriptome (GeneChip microarray) of spleen 6 h after adjuvant administration: sDEGs, hierarchical clustering; as to adjuvant group (cluster) in SP: key: G1 (interferon signaling); G2 (metabolism of lipids and lipoproteins); G3 (response to stress); G4 (response to wounding); G5 (phosphate-containing compound metabolic process); G6 (phagosome); conditions: for Number of gene probes with statistically significant changes (sDEGs), SP, Down / Number of gene probes with statistically significant changes (sDEGs), SP, Up: i.d. administration; for Number of gene probes with statistically significant changes (sDEGs), SP, Down: fold change <0.667, p<0.01, customized PA call=1, 6 h after adjuvant; for Number of gene probes with statistically significant changes (sDEGs), SP, Up: fold change >1.5, p<0.01, customized PA call=1, 6 h after adjuvant
liver (LV) = test: Whole organ transcriptome (GeneChip microarray) of liver 6 h after adjuvant administration: sDEGs, hierarchical clustering; as to adjuvant group (cluster) in LV: key: G1 (interferon signaling); G2 (metabolism of lipids and lipoproteins); G3 (response to stress); G4 (response to wounding); G5 (phosphate-containing compound metabolic process); G6 (phagosome); conditions: liver; for Number of gene probes with statistically significant changes (sDEGs), LV, Down / Number of gene probes with statistically significant changes (sDEGs), LV, Up: i.d. administration, 6 h after adjuvant; for Number of gene probes with statistically significant changes (sDEGs), LV, Down: fold change <0.667, p<0.01, customized PA call=1; for Number of gene probes with statistically significant changes (sDEGs), LV, Up: fold change >1.5, p<0.01, customized PA call=1
[1] = system: inguinal lymph nodes (LN); test: Whole organ transcriptome (GeneChip microarray) of draining inguinal lymph nodes 6 h after adjuvant administration: sDEGs, gene modules, hierarchical clustering; as to adjuvant group (cluster) in LN: key: G1 (interferon signaling); G2 (metabolism of lipids and lipoproteins); G3 (response to stress); G4 (response to wounding); G5 (phosphate-containing compound metabolic process); G6 (phagosome); conditions: for Number of gene probes with statistically significant changes (sDEGs), LN, Down / Number of gene probes with statistically significant changes (sDEGs), LN, Up: i.d. administration, 6 h after adjuvant; for Number of gene probes with statistically significant changes (sDEGs), LN, Down: fold change <0.667, p<0.01, customized PA call=1; for Number of gene probes with statistically significant changes (sDEGs), LN, Up: fold change >1.5, p<0.01, customized PA call=1
LV, SP and LNs = test: Whole organ transcriptome across organs (adjuvant gene space): gene responses and adjuvant grouping; conditions: hierarchical clustering; LV, SP and/or LNs
[2] = system: preferentially upregulated genes in LV, SP, LN; test: Z-score-based differential gene expression analysis (adjuvant group- or adjuvant-associated genes, 40 module mapping, TargetMine annotation); conditions: z-score selected genes; TargetMine and IPA upstream cytokine analyses
Text: Each sample's FC value was converted into a z-score on a gene basis by using the entire data set for each organ. The Z-score of the triplicates of interest were summed for each adjuvant. For example, the three sample z-score in the LV sample following cdiGMP administration was summed on a gene-by-gene basis, after which the summed scores of >3 genes were selected as relatively preferentially expressed genes in the LV after cdiGMP administration. The following threshold was applied for selections. […] G2^LV: ALM_IP(z>1) & bCD(z>1) & ENDCN(z>1) & FCA(z>1). […] G4^LV: MALP2s(z>3). […] G2^SP: ENDCN_x2+ENDCN_x3(z>2) & ALM_IP(z>3) & bCD(z>3). […] G4^SP: ADX_ID_x2+ADX_ID_x3(z>2) & ADX_IP(z>3) & MALP2s(z>3). […] G2^LN: bCD(z>3) & FCA(z>3). […] G5^LN: K3(z>1.5) & K3SPG_x1+K3SPG_x2(z>1) & D35_x1+D35_x3(z>1). G6^LN: AddaVax(z>3).

Row | Molecule | monocytosis (monocytes in blood) (circulating blood cells) | Number of gene probes with statistically significant changes (sDEGs), SP, Down (spleen (SP)) | Number of gene probes with statistically significant changes (sDEGs), SP, Up (spleen (SP)) | Number of gene probes with statistically significant changes (sDEGs), LV, Down (liver (LV)) | Number of gene probes with statistically significant changes (sDEGs), LV, Up (liver (LV)) | Number of gene probes with statistically significant changes (sDEGs), LN, Down ([1]; lymph node) | Number of gene probes with statistically significant changes (sDEGs), LN, Up ([1]; lymph node) | adjuvant group (cluster) within the adjuvant gene space (LV, SP and LNs) | adjuvant group (cluster) in SP (spleen (SP); hierarchical clustering) | adjuvant group-associated biological features [2] | adjuvant group (cluster) in LV (liver (LV); hierarchical clustering) | leukopenia (circulating blood cells) | lymphopenia (circulating blood cells) | module M40^LN (immune system process; dendritic cells, macrophages, neutrophils, stromal cells) ([1]; LN, 6 h) | adjuvant group (cluster) in LN ([1]; hierarchical clustering, lymph node)
1 | CCCCCCCCCCCCCCCC(=O)N[C@@H](CSCC(COC(=O)CCCCCCCCCCCCCCC)OC(=O)CCCCCCCCCCCCCCC)C(=O)N[C@@H](CO)C(=O)N[C@@H](CCCCN)C(=O)N[C@@H](CCCCN)C(=O)N[C@@H](CCCCN)C(=O)N[C@@H](CCCCN)C(=O)O (stereo partly drawn) [Pam3CSK4, Pam-3-Cys-Ser-Lys-Lys-Lys-Lys] (Palmitoyl-C(X1)SKKKK-OH) | clearly induced | – | – | – | – | – | – | – | – | – | – | – | – | – | –
2 | Nc1nc2c(ncn2[C@@H]2O[C@@H]3COP(=O)(O)O[C@H]4[C@@H](O)[C@H](n5cnc6c(=O)[nH]c(N)nc65)O[C@@H]4COP(=O)(O)O[C@H]3[C@H]2O)c(=O)[nH]1 [cdlGMP] | – | 261 | 707 | 218 | 280 | 908 | 1579 | – | – | – | – | – | – | – | –
3 | Polyinosine-polycytidylic acid [PolyIC] | – | 738 | 1360 | 1122 | 516 | 1460 | 2203 | group (G) 1 | G1 | strongly associated with type I and type II interferon responses | G1 | caused leukopenia | strongly induced | strongly induced | G1
